In patent US20090170867A1, “TRPV1 ANTAGONISTS INCLUDING SULFONAMIDE SUBSTITUENT AND USES THEREOF” (Shionogi & Co., Ltd., priority 2007, published 2009) one finds IC50 and solubility data, which are given here for four compounds.

≈ marks a conversion by molar mass, not a printed value. Like-named read-outs stand apart in the source and are kept apart here.

Series [1] has as its target T1, human TRPV1 (Homo sapiens, UniProt Q8NER1).
T1 construct: using primers designed surrounding the complete hTRPV1 open reading frame; expressed in transfected cells; host or cells: CHO-K1 cells stably transfected with pcDNA3.1(-)-hVR1 plasmid
Put plainly: Capsaicin-based assay, Protocol 2 (TRPV1/CHO cells, Fluo-4, FLIPR). The series is classed as cell-based. As to conditions: capsaicin 100 nM final, mean ± SEM, number of trials in parentheses, read-out: TRPV1 IC50 Potency, Human Capsaicin CHO (hCAP-CHO). Summed up: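 CHO cells stably transfected with human TRPV1 cDNA, kept under G418 selection, loaded with 3 μM Fluo-4 for 1 h. Calcium fluorescence followed on FLIPR after a 15 s baseline against capsaicin challenge; compounds at final 100 μM to 1.5625 μM, curves fitted over the full time course.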

Series [2] has as its target T1, human TRPV1. The experiment in a line: pH-based assay, Protocol 2 (TRPV1/CHO cells, Fura-2 AM, FDSS-3000, pH 5.0-5.1). As to conditions: H2SO4 agonist, mean ± SEM, number of trials in parentheses, read-out: TRPV1 IC50 Potency, Human pH CHO (hpH-CHO). The series is classed as cell-based.
Another series in a line: Aqueous solubility. As to conditions: aqueous solution. The series is classed as physicochemical.
Setting [3] is: pH 1.2, simulated gastric fluid, read-out: aqueous solubility at pH 1.2.
[4] abbreviates: pH 6.8, aqueous buffer, read-out: aqueous solubility at pH 6.8.

T1 sequence (Q8NER1 whole entry): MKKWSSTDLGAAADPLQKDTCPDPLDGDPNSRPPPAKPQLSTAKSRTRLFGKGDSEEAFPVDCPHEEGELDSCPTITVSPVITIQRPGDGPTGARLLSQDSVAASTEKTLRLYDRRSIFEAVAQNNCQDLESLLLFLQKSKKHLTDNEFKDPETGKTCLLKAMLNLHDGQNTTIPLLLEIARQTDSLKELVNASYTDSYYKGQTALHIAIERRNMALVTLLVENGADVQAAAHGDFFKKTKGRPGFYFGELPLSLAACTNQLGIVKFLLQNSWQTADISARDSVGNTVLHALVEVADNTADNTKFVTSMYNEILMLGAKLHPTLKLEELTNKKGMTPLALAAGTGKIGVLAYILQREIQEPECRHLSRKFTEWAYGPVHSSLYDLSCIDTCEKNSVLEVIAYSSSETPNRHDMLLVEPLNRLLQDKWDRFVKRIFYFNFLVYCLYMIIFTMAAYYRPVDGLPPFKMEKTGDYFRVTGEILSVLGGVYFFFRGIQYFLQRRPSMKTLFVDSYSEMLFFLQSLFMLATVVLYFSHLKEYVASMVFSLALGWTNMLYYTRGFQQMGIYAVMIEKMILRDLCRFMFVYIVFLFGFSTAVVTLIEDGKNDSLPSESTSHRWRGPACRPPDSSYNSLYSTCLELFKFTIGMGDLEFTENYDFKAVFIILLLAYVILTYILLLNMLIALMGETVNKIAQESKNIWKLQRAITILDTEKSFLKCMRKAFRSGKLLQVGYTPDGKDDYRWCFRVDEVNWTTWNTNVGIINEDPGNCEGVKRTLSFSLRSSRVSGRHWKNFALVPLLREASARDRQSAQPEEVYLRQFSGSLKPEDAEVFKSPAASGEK

Broadly, the IC50 is the concentration that gives 50% inhibition. Broadly, the solubility is the concentration that dissolves in the medium under given conditions. For `O=C(Nc1ccc(C(F)(F)F)cc1)N1CC=C(c2ncc([C@H](O)CO)cc2F)CC1` [Compound U1], the IC50 was found to be 61.3 ± 22.5 nM on human TRPV1 [1] and 14.7 ± 3.3 nM at human TRPV1 [2]. Moreover, the solubility in “Aqueous solubility” (setting [3]) and in the series “Aqueous solubility” (setting [4]) was more than 50 µM throughout.
Turning to `O=C(Nc1ccc(C(F)(F)F)c(F)c1)N1CC=C(c2ncc([C@H](O)CO)cc2Cl)CC1` [Compound S1, (S)-3-Chloro-5-(1,2-dihydroxy-ethyl)-3′,6′-dihydro-2′H-[2,4′]bipyridinyl-1′-carboxylic acid (3-fluoro-4-trifluoromethyl-phenyl)amide], the results for the IC50 on human TRPV1 [1] and on human TRPV1 [2] were 53.5 ± 16.3 nM and 16.3 ± 2 nM, respectively. Further, the solubility in “Aqueous solubility” (setting [3]) and in the series “Aqueous solubility” (setting [4]) was more than 50 µM in each case.
Consider `O=C(Nc1ccc(C(F)(F)F)cc1)N1CCC(F)(c2ncc([C@H](O)CO)cc2Cl)CC1` [Compound N1, (S)-4-(3-chloro-5-(1,2-dihydroxyethyl)pyridin-2-yl)-4-fluoro-N-(4-(trifluoromethyl)phenyl)piperidine-1-carboxamide], for which the IC50 on human TRPV1 [1] was 38.7 ± 5.3 nM; on human TRPV1 [2], 6.3 ± 0.8 nM. Besides, the values for the solubility in the series “Aqueous solubility” (setting [3]) and in “Aqueous solubility” (setting [4]) were more than 50 µM and 28 µM (≈ 12.9 µg/mL), respectively.
On to `COC(=O)Cc1cnc(C2=CCN(C(=O)Nc3ccc(C(F)(F)F)cc3)CC2)c(Cl)c1` [Compound F6], for which the IC50 on human TRPV1 [1] worked out at 864 nM; on human TRPV1 [2], 467 nM. Besides, the solubility in “Aqueous solubility” (setting [3]) is more than 50 µM; in the series “Aqueous solubility” (setting [4]) it was 9.2 µM (≈ 4.18 µg/mL).
